Data: ChEMBL document CHEMBL1201861, “Genomics of Drug Sensitity in Cancer screening data, Wellcome Trust Sanger Institute”

Legend:
YKG-1 = assay: cells; assay type: functional, cell-based, Homo sapiens; details: Homo sapiens, YKG-1
Description: SANGER: Inhibition of human YKG-1 cell growth in a cell viability assay.

SCC-4 = assay: cells; assay type: functional, cell-based, Homo sapiens; details: Homo sapiens, SCC-4;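 further: growth inhibition of human SCC-4 cells, read out as cell viability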
Description: SANGER: Inhibition of human SCC-4 cell growth in a cell viability assay.

BXPC-3 = assay: cells; assay type: functional, cell-based, Homo sapiens; details: Homo sapiens, BXPC-3;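 further: growth inhibition of human BxPC-3 cells, read out by a cell viability assay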
Description: SANGER: Inhibition of human BxPC-3 cell growth in a cell viability assay.

LN-405 = assay: cells; assay type: functional, cell-based, Homo sapiens; details: Homo sapiens, LN-405
Description: SANGER: Inhibition of human LN-405 cell growth in a cell viability assay.

MeWo = assay: cells; assay type: functional, cell-based, Homo sapiens; details: Homo sapiens, MeWo;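 further: growth inhibition of MeWo cells, determined by a cell viability readout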
Description: SANGER: Inhibition of human Mewo cell growth in a cell viability assay.

NCI-H292 = assay: cells; assay type: functional, cell-based, Homo sapiens; details: Homo sapiens, NCI-H292;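 further: growth inhibition of NCI-H292 cells, read out with a cell viability assay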
Description: SANGER: Inhibition of human NCI-H292 cell growth in a cell viability assay.

NCI-H2291 = assay: cells; assay type: functional, cell-based, Homo sapiens; details: Homo sapiens, NCI-H2291
Description: SANGER: Inhibition of human NCI-H2291 cell growth in a cell viability assay.

BPH-1 = assay: cells; assay type: functional, cell-based, Homo sapiens; details: Homo sapiens, BPH-1;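 further: cell viability assay measuring growth inhibition of human BPH-1 cells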
Description: SANGER: Inhibition of human BPH-1 cell growth in a cell viability assay.

NCI-H2087 = assay: cells; assay type: functional, cell-based, Homo sapiens; details: Homo sapiens, NCI-H2087;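 further: growth inhibition determined with a cell viability readout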
Description: SANGER: Inhibition of human NCI-H2087 cell growth in a cell viability assay.

ESS-1 = assay: cells; assay type: functional, cell-based, Homo sapiens; details: Homo sapiens, ESS-1;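 further: growth inhibition of human ESS-1 cells, read out by a cell viability assay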
Description: SANGER: Inhibition of human ESS-1 cell growth in a cell viability assay.

H-EMC-SS = assay: cells; assay type: functional, cell-based, Homo sapiens; details: Homo sapiens, H-EMC-SS
Description: SANGER: Inhibition of human H-EMC-SS cell growth in a cell viability assay.

BT-549 = assay: cells; assay type: functional, cell-based, Homo sapiens; details: Homo sapiens, BT-549
Description: SANGER: Inhibition of human BT-549 cell growth in a cell viability assay.

HPAF-II = assay: cells; assay type: functional, cell-based, Homo sapiens; details: Homo sapiens, HPAF-II;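 further: growth inhibition of HPAF-II cells, read out with a cell viability assay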
Description: SANGER: Inhibition of human HPAF-II cell growth in a cell viability assay.

OVCAR-8 = assay: cells; assay type: functional, cell-based, Homo sapiens; details: Homo sapiens, OVCAR-8;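 further: growth inhibition of human OVCAR-8 cells, read out by a cell viability assay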
Description: SANGER: Inhibition of human OVCAR-8 cell growth in a cell viability assay.

SW1088 = assay: cells; assay type: functional, cell-based, Homo sapiens; details: Homo sapiens, SW1088;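 further: growth inhibition of human SW1088 cells, read out by a cell viability assay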
Description: SANGER: Inhibition of human SW1088 cell growth in a cell viability assay.

COLO-792 = assay: cells; assay type: functional, cell-based, Homo sapiens; details: Homo sapiens, COLO-792
Description: SANGER: Inhibition of human COLO-792 cell growth in a cell viability assay.

HOP-92 = assay: cells; assay type: functional, cell-based, Homo sapiens; details: Homo sapiens, HOP-92;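 further: cell viability readout, with IC50 reflecting inhibition of HOP-92 cell growth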
Description: SANGER: Inhibition of human HOP-92 cell growth in a cell viability assay.

CAL-33 = assay: cells; assay type: functional, cell-based, Homo sapiens; details: Homo sapiens, CAL-33;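 further: growth inhibition of CAL-33 cells, read out with a cell viability assay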
Description: SANGER: Inhibition of human CAL-33 cell growth in a cell viability assay.

GMS-10 = assay: cells; assay type: functional, cell-based, Homo sapiens; details: Homo sapiens, GMS-10;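 further: growth inhibition of GMS-10 cells, read out as cell viability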
Description: SANGER: Inhibition of human GMS-10 cell growth in a cell viability assay.

HCC70 = assay: cells; assay type: functional, cell-based, Homo sapiens; details: Homo sapiens, HCC70;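 further: cell viability assay measuring how strongly the compound suppresses proliferation of HCC70 cells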
Description: SANGER: Inhibition of human HCC70 cell growth in a cell viability assay.

SBC-5 = assay: cells; assay type: functional, cell-based, Homo sapiens; details: Homo sapiens, SBC-5;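 further: cell viability assay read-out, IC50 is the concentration that inhibits growth of the cells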
Description: SANGER: Inhibition of human SBC-5 cell growth in a cell viability assay.

MKN-45 = assay: cells; assay type: functional, cell-based, Homo sapiens; details: Homo sapiens, MKN-45;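 further: growth inhibition of human MKN-45 cells, measured with a cell viability assay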
Description: SANGER: Inhibition of human MKN45 cell growth in a cell viability assay.

HCT-116 = assay: cells; assay type: functional, cell-based, Homo sapiens; details: Homo sapiens, HCT-116
Description: SANGER: Inhibition of human HCT-116 cell growth in a cell viability assay.

SN12C = assay: cells; assay type: functional, cell-based, Homo sapiens; details: Homo sapiens, SN12C;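 further: growth inhibition of human SN12C cells, measured by a cell viability assay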
Description: SANGER: Inhibition of human SN12C cell growth in a cell viability assay.

786-0 = assay: cells; assay type: functional, cell-based, Homo sapiens; details: Homo sapiens
Description: SANGER: Inhibition of human 786-0 cell growth in a cell viability assay.

SK-MEL-24 = assay: cells; assay type: functional, cell-based, Homo sapiens; details: Homo sapiens, SK-MEL-24
Description: SANGER: Inhibition of human SK-MEL-24 cell growth in a cell viability assay.

UMC-11 = assay: cells; assay type: functional, cell-based, Homo sapiens; details: Homo sapiens, UMC-11;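 further: growth inhibition of UMC-11 cells, read out with a cell viability assay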
Description: SANGER: Inhibition of human UMC-11 cell growth in a cell viability assay.

MDA-MB-175-VII = assay: cells; assay type: functional, cell-based, Homo sapiens; details: Homo sapiens, MDA-MB-175-VII
COR-L105 = assay: cells; assay type: functional, cell-based, Homo sapiens; details: Homo sapiens, COR-L105
Description: SANGER: Inhibition of human COR-L105 cell growth in a cell viability assay.

HuP-T4 = assay: cells; assay type: functional, cell-based, Homo sapiens; details: Homo sapiens, HuP-T4;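 further: cell viability assay measuring how much HuP-T4 cell growth is inhibited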
Description: SANGER: Inhibition of human HuP-T4 cell growth in a cell viability assay.

BHY = assay: cells; assay type: functional, cell-based, Homo sapiens; details: Homo sapiens, BHY
Description: SANGER: Inhibition of human BHY cell growth in a cell viability assay.

Ca9-22 = assay: cells; assay type: functional, cell-based, Homo sapiens; details: Homo sapiens, Ca9-22;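 further: growth inhibition of Ca9-22 cells, read out with a cell viability assay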
Description: SANGER: Inhibition of human Ca9-22 cell growth in a cell viability assay.

8505C = assay: cells; assay type: functional, cell-based, Homo sapiens; details: Homo sapiens, 8505C
Description: SANGER: Inhibition of human 8505C cell growth in a cell viability assay.

GAMG = assay: cells; assay type: functional, cell-based, Homo sapiens; details: Homo sapiens, GAMG;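 further: cell growth inhibition measured by a viability assay in the GAMG human cell line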
Description: SANGER: Inhibition of human GAMG cell growth in a cell viability assay.

SNU-387 = assay: cells; assay type: functional, cell-based, Homo sapiens; details: Homo sapiens, SNU-387
Description: SANGER: Inhibition of human SNU-387 cell growth in a cell viability assay.

NCI-H1437 = assay: cells; assay type: functional, cell-based, Homo sapiens; details: Homo sapiens, NCI-H1437;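 further: growth inhibition of human NCI-H1437 cells, read out by a cell viability assay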
Description: SANGER: Inhibition of human NCI-H1437 cell growth in a cell viability assay.

REH = assay: cells; assay type: functional, cell-based, Homo sapiens; details: Homo sapiens, REH;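 further: growth inhibition of REH cells determined with a cell viability read-out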
Description: SANGER: Inhibition of human REH cell growth in a cell viability assay.

KARPAS-422 = assay: cells; assay type: functional, cell-based, Homo sapiens; details: Homo sapiens, KARPAS-422
Description: SANGER: Inhibition of human KARPAS-422 cell growth in a cell viability assay.

NCI-H1703 = assay: cells; assay type: functional, cell-based, Homo sapiens; details: Homo sapiens, NCI-H1703;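 further: growth inhibition of NCI-H1703 cells, read out via a cell viability assay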
Description: SANGER: Inhibition of human NCI-H1703 cell growth in a cell viability assay.

NCI-H2081 = assay: cells; assay type: functional, cell-based, Homo sapiens; details: Homo sapiens, NCI-H2081;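 further: growth inhibition of human NCI-H2081 cells, read out with a cell viability assay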
Description: SANGER: Inhibition of human NCI-H2081 cell growth in a cell viability assay.

Kasumi 1 = assay: cells; assay type: functional, cell-based, Homo sapiens; details: Homo sapiens, Kasumi 1;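 further: growth inhibition of human Kasumi-1 cells, read out by a cell viability assay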
Description: SANGER: Inhibition of human KASUMI-1 cell growth in a cell viability assay.

ECC4 = assay: cells; assay type: functional, cell-based, Homo sapiens; details: Homo sapiens, ECC4;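 further: growth inhibition of ECC4 cells, read out with a cell viability assay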
Description: SANGER: Inhibition of human ECC4 cell growth in a cell viability assay.

NCI-H2196 = assay: cells; assay type: functional, cell-based, Homo sapiens; details: Homo sapiens, NCI-H2196;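 further: cell viability assay used as the readout of growth inhibition in NCI-H2196 cells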
Description: SANGER: Inhibition of human NCI-H2196 cell growth in a cell viability assay.

PF-382 = assay: cells; assay type: functional, cell-based, Homo sapiens; details: Homo sapiens, PF-382
Description: SANGER: Inhibition of human PF-382 cell growth in a cell viability assay.

RPMI 8402 = assay: SANGER: Inhibition of human RPMI-8402 cell growth in a cell viability assay.; assay type: functional, cell-based; details: Homo sapiens, RPMI 8402; read-out: IC50
TE-15 = assay: cells; assay type: functional, cell-based, Homo sapiens; details: Homo sapiens, TE-15;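 further: cell viability readout of growth inhibition in TE-15 cells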
Description: SANGER: Inhibition of human TE-15 cell growth in a cell viability assay.

EB2 = assay: cells; assay type: functional, cell-based, Homo sapiens; details: Homo sapiens, EB2;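 further: growth inhibition of EB2 cells, read out with a cell viability assay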
Description: SANGER: Inhibition of human EB2 cell growth in a cell viability assay.

Raji = assay: cells; assay type: functional, cell-based, Homo sapiens; details: Homo sapiens, Raji;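 further: cell viability assay measuring inhibition of Raji cell growth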
Description: SANGER: Inhibition of human Raji cell growth in a cell viability assay.

SCC-3 = assay: cells; assay type: functional, cell-based, Homo sapiens; details: Homo sapiens, SCC-3;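 further: cell viability assay measuring inhibition of SCC-3 cell growth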
Description: SANGER: Inhibition of human SCC-3 cell growth in a cell viability assay.

Measured: IC50

COc1cc2c(Nc3ccc(NC(=O)c4ccccc4)cc3)ncnc2cc1OCCCN1CCOCC1
3.14 µM: YKG-1
1.73 µM: CAL-33
1.81 µM: HCT-116
2.37 µM: UMC-11
1.7 µM: NCI-H292
3.29 µM: Ca9-22
not listed: REH | KARPAS-422 | NCI-H1703 | NCI-H2081 | Kasumi 1 | ECC4 | NCI-H2196 | PF-382 | RPMI 8402 | TE-15 | EB2 | Raji | SCC-3
> 4 µM: all other assays above

N#Cc1c(O)c2c(-c3ccc(-c4ccccc4O)cc3)csc2[nH]c1=O
0.104 µM: REH
0.344 µM: KARPAS-422
0.442 µM: RPMI 8402
0.248 µM: NCI-H2196
0.509 µM: ECC4
0.0859 µM: PF-382
0.214 µM: NCI-H2087
0.67 µM: Raji
0.0418 µM: Kasumi 1
0.142 µM: EB2
not listed: NCI-H2291 | H-EMC-SS | BT-549
> 1.02 µM: all other assays above

CC(C)CCN1c2nc(Nc3cc(F)c(O)c(F)c3)ncc2N(C)C(=O)C1C (centres undefined)
4.46 µM: 8505C
3.53 µM: CAL-33
4.93 µM: NCI-H1437
3.09 µM: SCC-4 | GMS-10
1.46 µM: NCI-H292
2.66 µM: Ca9-22
1.98 µM: YKG-1
0.747 µM: GAMG
2.13 µM: BPH-1
not listed: REH | KARPAS-422 | NCI-H2081 | Kasumi 1 | ECC4 | NCI-H2196 | PF-382 | RPMI 8402 | TE-15 | EB2 | Raji | SCC-3
> 5 µM: all other assays above
